EC50 data for two molecules are collected here from US8906853B2, “[N-Me-4-hydroxyleucine]-9-cyclosporin analogues for treatment and prevention of hepatitis C infection” (Enanta Pharmaceuticals, Inc., priority 2012, dated 2014).

Experiment [1] concerns HCV 1a genotype replicon (strain H77, Huh-1a7 cells). Kind of experiment: HCV replicon assay, qRT-PCR, genotype 1a replicon cell line (Huh-1a7). Format: cell-based. As to conditions: HCV genotype 1a replicon, HCV RNA by qRT-PCR normalized to GAPDH RNA. The text has this:
(§1) HCV replicon cell lines (kindly provided by R. Bartenschlager) isolated from colonies as described by Lohman et al. (Lohman et al. (1999) Science 285: 110-113, expressly incorporated by reference in its entirety) and used for all experiments. One of the HCV replicon cell lines (strain Con1, genotype 1b) has the nucleic acid sequence set forth in EMBL Accession No.: AJ242651, the coding sequence of which is from nucleotides 1801 to 8406. Another replicon cell line (strain H77, genotype 1a) was constructed as described by Yi et al. (Yi et al. (2004) Journal of Virology 78(15):7904-15). […]
(§2) EC50 values of single agent compounds were determined by HCV RNA detection using quantitative RT-PCR, according to the manufacturer's instructions, with a TAQMAN® One-Step RT-PCR Master Mix Reagents Kit (Cat# AB 4309169, Applied Biosystems) on an ABI Model 7500 thermocycler. EC50 values of combinations are similarly determined by HCV RNA detection using quantitative RT-PCR. The TAQMAN primers to use for detecting and quantifying HCV RNA obtained from Integrated DNA Technologies. HCV RNA is normalized to GAPDH RNA levels in drug-treated cells, which is detected and quantified using the Human GAPDH Endogenous Control Mix (Applied Biosystems, AB 4310884E). […] Chemical agent cytotoxicity is evaluated using an MTS assay according to the manufacturer's directions (Promega). […]
On the technique in general: Replicon systems follow genome replication, usually without infectious particles.

The test system of experiment [2] is HCV 1b genotype replicon (strain Con1, SGR 11-7 cells). Description: HCV replicon assay, qRT-PCR, genotype 1b replicon cell line (SGR 11-7). The class given is cell-based. As to conditions: HCV genotype 1b replicon, HCV RNA by qRT-PCR normalized to GAPDH RNA.
Description: as §1, §2

Regarding `CC(C)CCCCN1CCOCC1` [Example 1], the EC50 in experiment [1] (Hepatitis C virus) and in experiment [2] (Hepatitis C virus) was below 200 nM each time.
With Allisporivir, the EC50 in experiment [1] and in experiment [2] was below 200 nM each time.
